In patent US11293001B2, “Microfluidic cell culture systems” (9493662 Canada Inc., priority 2013, dated 2022):

How the values were obtained:
[1] = system: DRG and hippocampal axons; assay: Immunocytochemistry: distribution of cytosolic components in axons with impaired transport; format: cell-based, rat
Description: (§1) To minimize remodeling and maintain the parallel organization of the axons in the cultures, DRG neurons were cultured at a density four-times lower than hippocampal neurons and were tested within 7-10 days in culture, whereas hippocampal axons were tested after 14-18 days in culture.
Immunocytochemistry was performed as described in Reference [8] with mouse anti-tubulin, rabbit anti neurofilament, rabbit polyclonal anti-Tom20 (mitochondrial preprotein translocases of the outer membrane FL-145); and Alexa Fluor™ 488 conjugated phalloidin. The secondary antibodies used were Rhodamine Red antimouse IgG and Alexa Fluor™ 647 anti-rabbit IgG. Samples were imaged using a laser scanning confocal microscope with a 60× PlanApo oilimmersion objective on an inverted microscope.
To investigate the reason for the higher resistance of DRG axons to compression and to vinblastine effects, the inventors investigated the composition and distribution of cytosolic components in axons with impaired transport. […] The inventors analyzed the distribution of mitochondria, actin, neurofilament, and tubulin after blockade of axonal transport.

[2] = system: hippocampal and DRG axons; assay: Axonal elastic modulus by AFM nano-indentation (modified Hertz model); format: cell-based, rat
Description: as §1
Simultaneous compression and live imaging of single axons were performed on a Bioscope AFM mounted on an inverted optical microscope using a 100× objective (1.45 NA) and 1K charge-coupled device camera. Two different compression experiments were performed. In the first, a 20-mm polystyrene bead was fixed, see Reference [8], to the tip of silicon nitride probes with a nominal spring constant of k=0.01 N/m and used to compress axons with controlled force ranging from 0.1 nN≤F≤4 nN for different time periods. In the second, tipless n-type silicon probes with nominal spring constant of k=0.03 N/m were used to apply constant force to axons. […]
Modeling the underlying glass plane as a sphere with an infinite radius, then the term accounting for the deformation induced by the plane is negligible. Using the method of Reference [13] the δBead-Cylinder can be calculated using Equation (2) where γ is the Poisson ratio of the axon or the bead, E is the Young's modulus of the material, F is the total force applied, e is the eccentricity of the ellipse of contact, and K and

[3] = increasing vinblastine concentration
[4] = 1 hour treatment, FIG. 4C insert
[5] = increasing vinblastine concentrations, 1 hour
[6] = vinblastine 5 nM or 500 nM for 1 hour, fixed, AFM

vinblastine sulfate salt
tubulin and neurofilament aggregation at FAS [1, 3]: proportional increase
distribution of actin ([1]; vinblastine-treated axons): concentrated between FAS
distribution of mitochondria ([1]; vinblastine-treated axons): changed from uniform to a discontinuous punctate pattern
neurofilaments and microtubules ([1]; vinblastine-treated axons): collapsed and accumulated at FAS
average elastic modulus at 30% of indentation (EM30%) ([2]; 5 nM vinblastine, p<0.001): significantly decreased
slope of the elastic modulus curve as a function of percentage indentation [2, 3]: decreased proportionally with increasing vinblastine concentration
vinblastine concentration at which the volume of the non-FAS segment decreased (hippocampal axons; [4]): 5 nM
volume of single FAS (hippocampal axons; [5]): did not significantly change
number and size of FAS (focal axonal swelling) (hippocampal axons; [6]): increased with increasing vinblastine concentrations
vinblastine concentration at which the volume of the non-FAS segment decreased (DRG axons; [4]): 500 nM
volume of single FAS (DRG axons; [5]): increased with increasing vinblastine concentrations
number and size of FAS (focal axonal swelling) (DRG axons; [6]): increased with increasing vinblastine concentrations
